{"source": "patent US6777544B2", "about": "“Polyamide nucleic acid derivatives and agents and processes for preparing them” (Aventis Pharma Deutschland GmbH, priority 2000, dated 2004)", "key": {"complementary RNA": {"tested_on": "complementary RNA", "test": "Melting temperature (Tm) of PNA with complementary RNA", "assay_type": "binding", "settings": "140 mM KCl, 10 mM sodium dihydrogen phosphate, 0.1 mM EDTA (pH 7.4); oligomer 0.5 to 1 OD260 per ml", "method": "(§1) The melting temperatures were determined using an HP 8452A diode-array spectrophotometer, an HP 89090A Peltier element, and HP Temperature Control Software Rev. B5.1 (from Hewlett Packard). Measurements were taken in 0.5° C./min steps in 140 mM KCl, 10 mM sodium dihydrogen phosphate, 0.1 mM EDTA (pH 7.4) as the buffer. The oligomer concentration was from 0.5 to 1 OD260 per ml."}, "complementary DNA": {"tested_on": "complementary DNA", "test": "Melting temperature (Tm) of PNA with complementary DNA", "assay_type": "binding", "settings": "140 mM KCl, 10 mM sodium dihydrogen phosphate, 0.1 mM EDTA (pH 7.4); oligomer 0.5 to 1 OD260 per ml", "method": "as §1"}, "REH cells": {"tested_on": "REH cells", "test": "Inhibiting cell proliferation (cell density)", "assay_type": "cell-based, human", "settings": "10 μM", "method": "The sequence of PNA-13 is directed against the translation start of the Ha-ras mRNA. REH cells (human pre-B leukemia cells, DSM ACC 22) or A549 tumor cells were cultured, at 37° C. and under 5% CO2, in OptiMEM (Gibco BRL) containing 10% fetal calf serum (FCS, GIBCO-BRL). The cell density for the assay was approx. 1×10^6/ml. The PNA-13 (10 μM) was incubated with the cells in 24-well plates. After incubating at 37° C. and under 5% CO2 for 96 hours, the cell density was determined. Mean values for the cell density were determined from 3 individual wells at a given PNA concentration."}, "COS cells": {"tested_on": "COS cells", "test": "Cell uptake after fluorescence labeling (fluorescence microscopy)", "assay_type": "cell-based", "settings": "PNA solution 10 μM, 37° C., examined after 2, 4 and 16 hours, C-terminally fluorescein-labeled, compared with labeled PNA-6", "method": "COS cells were allowed to grow to confluence in Dulbecco's MEM (DMEM), which had been supplemented with 10% FCS, in 5 cm Petri dishes. The cells were washed twice with serum-free DM EM. An area of approx. 1 cm^2 was scratched out in the middle of the Petri dish using a sterile needle. The PNA solution (10 μM) under investigation was applied in this area. The dish was incubated at 37° C. under a CO2 atmosphere. After 2, 4, and 16 hours, the cells were examined by fluorescence microscopy. For this, the cells were washed four times with serum-free DM EM, covered with a cover slip, and evaluated under the fluorescence microscope or by phase contrast.\nIn order to investigate the cell uptake, PNA-6 and PNA-13 were labeled as indicated directly below with fluorescein at the C terminus and then examined microscopically."}}}
{"substance": "Biotin-p-{t(oeg) at tcc gtc at}-hex [PNA-12]", "values": [{"measurement": "Tm (RNA)", "setting": "complementary RNA", "value": 57.9, "unit": "°C"}, {"measurement": "Tm (DNA)", "setting": "complementary DNA", "value": 43.6, "unit": "°C"}]}
{"substance": "Fluorescein-p-{t(oeg) at tcc gtc at}-hex (TATTCCGTCAT; chemistry not fully specified) [PNA-14]", "values": [{"measurement": "Tm (RNA)", "setting": "complementary RNA", "value": 56.7, "unit": "°C"}, {"measurement": "Tm (DNA)", "setting": "complementary DNA", "value": 42.5, "unit": "°C"}]}
{"substance": "Phosphate-{t(oeg)-at tcc gtc at}-hex (TATTCCGTCAT; chemistry not fully specified) [PNA-6]", "values": [{"measurement": "Tm (RNA)", "setting": "complementary RNA", "value": 57.5, "unit": "°C"}, {"measurement": "Tm (DNA)", "setting": "complementary DNA", "value": 44.0, "unit": "°C"}]}
{"substance": "Ac-HN-tat tcc gtc at-hex [Reference, reference compound]", "values": [{"measurement": "Tm (RNA)", "setting": "complementary RNA", "value": 56.6, "unit": "°C"}, {"measurement": "Tm (DNA)", "setting": "complementary DNA", "value": 41.9, "unit": "°C"}]}
{"substance": "Hexadecyl-O-p-{t(oeg) at tcc gtc at}-hex (TATTCCGTCAT; chemistry not fully specified) [PNA-13]", "values": [{"measurement": "inhibition of cell proliferation", "setting": "REH cells; 96 hours, 37° C., 5% CO2", "value": "inhibits proliferation of the REH cells"}, {"measurement": "inhibition of proliferation compared with a corresponding phosphorothioate oligonucleotide", "setting": "REH cells; after >4 days of incubation", "value": "greater than that brought about by a corresponding phosphorothioate oligonucleotide"}, {"measurement": "cell uptake", "setting": "COS cells", "value": "taken up more efficiently into the cells"}, {"measurement": "Tm (RNA)", "setting": "complementary RNA", "value": 58.9, "unit": "°C"}, {"measurement": "Tm (DNA)", "setting": "complementary DNA", "value": 46.7, "unit": "°C"}]}
